Data taken from PMC10800876, “Evaluation of proline-rich antimicrobial peptides as potential lead structures for novel antimycotics against Cryptococcus neoformans” (Frontiers in Microbiology, 2024).
In brackets after ≈: the same amount, converted by molar mass. Read-outs that look alike come from different tables or passages of the source. Starred links: 1 amine or outer side, 2 acyl side, 3 side chain; linkers in the order of their positions; H or OH if unused. Non-standard residues stand in square brackets, D forms with d. Residues, ends and D or L forms follow the SMILES beside them. *: point of attachment. 5FAM = O=C1OC2(c3ccc(O)cc3Oc3cc(O)ccc32)c2ccc(C(=O)*)cc21; δOrn(α-TMG) = CN(C)C(=N[C@@H](CCCN[*:1])C(=O)[*:2])N(C)C; Ac6c = NC1(C(=O)O)CCCCC1; Orn = NCCC[C@H](N)C(=O)O

Test system: C. neoformans 1841 (serotype D)
Settings: for activity of Cf-labeled peptide relative to the corresponding unlabeled peptide: C. neoformans 1841
[1] = C. neoformans 1841, read after 24 h, mean of three replicates (n = 3)
[2] = C. neoformans 1841, read after 48 h, mean of three replicates (n = 3)

## CC[C@H](C)[C@H](NC(=O)[C@H](Cc1ccc(O)cc1)NC(=O)[C@@H](NC(=O)[C@@H]1CCCN1C(=O)[C@H](CCCNC(=N)N)NC(=O)[C@H](CC(N)=O)NC(=O)[C@H](CC(N)=O)NC(=O)[C@H](CCCNC(=O)c1ccc2c(c1)C(=O)OC21c2ccc(O)cc2Oc2cc(O)ccc21)N=C(N(C)C)N(C)C)C(C)C)C(=O)N1CCC[C@H]1C(=O)N[C@@H](CCCNC(=N)N)C(=O)N1CCC[C@H]1C(=O)N[C@@H](CCCNC(=N)N)C(=O)N1CCC[C@H]1C(=O)N1CCC[C@H]1C(=O)N[C@@H](Cc1c[nH]cn1)C(=O)N1CCC[C@H]1C(=O)N[C@@H](CCCNC(=N)N)C(=O)N[C@@H](CC(C)C)C(N)=O [Cf-Api88] (5FAM-[δOrn(α-TMG)]NNRPVYIPRPRPPHPRL-NH2)
1841 (serotype D, 24 h)
  MIC (mg/L) 24 h, Cf-labeled peptides: 32 mg/L (≈ 12.1 µM)
1841 (serotype D, 48 h)
  MIC (after 48 h): 7.0 µM (≈ 18.5 µg/mL)
  MIC (mg/L) 48 h, Cf-labeled peptides: 32 to 64 mg/L
  activity of Cf-labeled peptide relative to the corresponding unlabeled peptide: slightly less active

## CC[C@H](C)[C@H](NC(=O)[C@H](Cc1ccc(O)cc1)NC(=O)[C@@H](NC(=O)[C@@H]1CCCN1C(=O)[C@H](CCCNC(=N)N)NC(=O)[C@H](CC(N)=O)NC(=O)[C@H](CC(N)=O)NC(=O)[C@H](CCCNC(=O)c1ccc2c(c1)C(=O)OC21c2ccc(O)cc2Oc2cc(O)ccc21)N=C(N(C)C)N(C)C)C(C)C)C(=O)N1CCC[C@H]1C(=O)N[C@@H](CCCNC(=N)N)C(=O)N1CCC[C@H]1C(=O)N[C@@H](CCCNC(=N)N)C(=O)N1CCC[C@H]1C(=O)N1CCC[C@H]1C(=O)N[C@@H](Cc1c[nH]cn1)C(=O)N1CCC[C@H]1C(=O)N[C@@H](CCCNC(=N)N)C(=O)N[C@@H](CC(C)C)C(=O)O [Cf-Api137] (5FAM-[δOrn(α-TMG)]NNRPVYIPRPRPPHPRL-OH)
1841 (serotype D, 24 h)
  MIC (mg/L) 24 h, Cf-labeled peptides: > 64 mg/L
1841 (serotype D, 48 h)
  MIC (after 48 h): 28 µM (≈ 74.2 µg/mL)
  MIC (mg/L) 48 h, Cf-labeled peptides: > 64 mg/L
  activity of Cf-labeled peptide relative to the corresponding unlabeled peptide: slightly less active

## CC[C@H](C)[C@H](NC(=O)[C@H](CCCNC(=O)c1ccc2c(c1)C(=O)OC21c2ccc(O)cc2Oc2cc(O)ccc21)N=C(N(C)C)N(C)C)C(=O)N[C@@H](CCCN)C(=O)N[C@H](C(=O)N[C@@H](CCCN)C(=O)N[C@@H](CCCNC(=N)N)C(=O)N1CCC[C@H]1C(=O)N[C@H](C(=O)N[C@@H](Cc1ccc(O)cc1)C(=O)N[C@@H](CCCN)C(=O)N1CCC[C@H]1C(=O)N[C@@H](CCCNC(=N)N)C(=O)N1CCC[C@H]1C(=O)N[C@@H](CCCNC(=N)N)C(=O)N1CCC[C@H]1C(=O)N1CCC[C@H]1C(=O)N[C@@H](Cc1c[nH]cn1)C(=O)N1CCC[C@H]1C(=O)N[C@@H](CCCNC(=N)N)C(=O)N[C@@H](CC(C)C)C(=O)O)C(C)C)[C@@H](C)CC [Cf-Api795] (5FAM-[δOrn(α-TMG)]I[Orn]I[Orn]RPVY[Orn]PRPRPPHPRL-OH)
1841 (serotype D, 48 h)
  MIC (after 48 h): 3.2 µM (≈ 9.21 µg/mL)
  activity of Cf-labeled peptide relative to the corresponding unlabeled peptide: slightly more active
[1]
  MIC (mg/L) 24 h, Cf-labeled peptides: 4 mg/L (≈ 1.39 µM)
[2]
  MIC (mg/L) 48 h, Cf-labeled peptides: 4 mg/L (≈ 1.39 µM)

## CC[C@H](C)[C@H](NC(=O)[C@H](Cc1ccc(O)cc1)NC(=O)[C@@H](NC(=O)[C@@H]1CCCN1C(=O)[C@H](CCCNC(=N)N)NC(=O)[C@H](CC(N)=O)NC(=O)[C@H](CC(N)=O)NC(=O)CNC(=O)c1ccc2c(c1)C(=O)OC21c2ccc(O)cc2Oc2cc(O)ccc21)C(C)C)C(=O)N1CCC[C@H]1C(=O)N[C@@H](CCC(N)=O)C(=O)N1CCC[C@H]1C(=O)N[C@@H](CCCNC(=N)N)C(=O)N1CCC[C@H]1C(=O)N1CCC[C@H]1C(=O)N[C@@H](Cc1c[nH]cn1)C(=O)N1CCC[C@H]1C(=O)N[C@@H](CCCNC(=N)N)C(=O)N[C@@H](CC(C)C)C(=O)O [Cf-Apidaecin 1b] (5FAM-GNNRPVYIPQPRPPHPRL-OH)
1841 (serotype D, 24 h)
  MIC (mg/L) 24 h, Cf-labeled peptides: >128 mg/L
1841 (serotype D, 48 h)
  MIC (after 48 h): > 61 µM
  MIC (mg/L) 48 h, Cf-labeled peptides: >128 mg/L

## CC(C)C[C@H](NC(=O)[C@H](Cc1ccc(O)cc1)NC(=O)[C@@H]1CCCN1C(=O)[C@H](CCCNC(=N)N)NC(=O)[C@@H]1CCCN1C(=O)[C@H](CCCCN)NC(=O)[C@H](CCCCN)NC(=O)[C@@H]1CCCN1C(=O)[C@H](CCCNC(=N)N)NC(=O)C1(NC(=O)c2ccc3c(c2)C(=O)OC32c3ccc(O)cc3Oc3cc(O)ccc32)CCCCC1)C(=O)N1CCC[C@H]1C(=O)N[C@@H](CCCNC(=N)N)C(=O)N1CCC[C@H]1C(=O)N[C@@H](CCCNC(=N)N)C(=O)N1CCC[C@H]1C(=O)N1CCC[C@H]1C(=O)N[C@@H](CCCNC(=N)N)C(=O)N1CCC[C@H]1C(=O)N[C@H](C(=O)N[C@@H](CCCNC(=N)N)C(N)=O)C(C)C [Cf-Chex1Arg20 D4K] (5FAM-[Ac6c]RPKKPRPYLPRPRPPRPVR-NH2)
1841 (serotype D, 48 h)
  MIC (after 48 h): 1.6 µM (≈ 4.55 µg/mL)
  activity of Cf-labeled peptide relative to the corresponding unlabeled peptide: slightly less active
[1]
  MIC (mg/L) 24 h, Cf-labeled peptides: 8 mg/L (≈ 2.81 µM)
[2]
  MIC (mg/L) 48 h, Cf-labeled peptides: 8 mg/L (≈ 2.81 µM)

## CC(C)C[C@H](NC(=O)[C@H](Cc1ccc(O)cc1)NC(=O)[C@@H]1CCCN1C(=O)[C@H](CCCNC(=N)N)NC(=O)[C@@H]1CCCN1C(=O)[C@H](CCCCN)NC(=O)[C@H](CC(=O)O)NC(=O)[C@@H]1CCCN1C(=O)[C@H](CCCNC(=N)N)NC(=O)C1(NC(=O)c2ccc3c(c2)C(=O)OC32c3ccc(O)cc3Oc3cc(O)ccc32)CCCCC1)C(=O)N1CCC[C@H]1C(=O)N[C@@H](CCCNC(=N)N)C(=O)N1CCC[C@H]1C(=O)N[C@@H](CCCNC(=N)N)C(=O)N1CCC[C@H]1C(=O)N1CCC[C@H]1C(=O)N[C@@H](CCCNC(=N)N)C(=O)N1CCC[C@H]1C(=O)N[C@H](C(=O)N[C@@H](CCCNC(=N)N)C(N)=O)C(C)C [Cf-Chex1Arg20] (5FAM-[Ac6c]RPDKPRPYLPRPRPPRPVR-NH2)
1841 (serotype D, 48 h)
  MIC (after 48 h): 3.2 µM (≈ 9.07 µg/mL)
  activity of Cf-labeled peptide relative to the corresponding unlabeled peptide: slightly more active
[1]
  MIC (mg/L) 24 h, Cf-labeled peptides: 4 mg/L (≈ 1.41 µM)
[2]
  MIC (mg/L) 48 h, Cf-labeled peptides: 4 mg/L (≈ 1.41 µM)

## CC[C@H](C)[C@H](NC(=O)[C@@H](CCCNC(=N)N)NC(=O)[C@H](CCCNC(=N)N)NC(=O)[C@@H]1CCCN1C(=O)[C@@H]1CCCN1C(=O)[C@H](CCCNC(=N)N)NC(=O)[C@@H]1CCCN1C(=O)[C@H](CCCNC(=N)N)NC(=O)[C@@H]1CCCN1C(=O)[C@H](CC(C)C)NC(=O)[C@H](Cc1ccc(O)cc1)NC(=O)[C@@H]1CCCN1C(=O)[C@@H]1CCCN1C(=O)[C@H](CCCCN)NC(=O)[C@H](CC(=O)O)NC(=O)[C@@H](NC(=O)c1ccc2c(c1)C(=O)OC21c2ccc(O)cc2Oc2cc(O)ccc21)C(C)C)C(=O)N[C@@H](Cc1ccc(O)cc1)C(=O)N[C@@H](CC(N)=O)C(=O)N[C@H](CCCNC(=N)N)C(N)=O [Cf-Onc112] (5FAM-VDKPPYLPRPRPPR[dR]IYN[dR]-NH2)
1841 (serotype D, 24 h)
  MIC (mg/L) 24 h, Cf-labeled peptides: 4 to 8 mg/L
1841 (serotype D, 48 h)
  MIC (after 48 h): 6.7 µM (≈ 18.4 µg/mL)
  MIC (mg/L) 48 h, Cf-labeled peptides: 4 to 8 mg/L
  activity of Cf-labeled peptide relative to the corresponding unlabeled peptide: slightly more active
